From paper PMC6348054 (Bioorganic & medicinal chemistry letters, 2018)

Test system: 20S proteasome core particle (20S CP)
Assay: FRET peptide hydrolysis assay, percent stimulation over basal
Assay type: biochemical, Homo sapiens

- Stimulation: 160%
Structure (SMILES): CCCCC/C=C\C/C=C\CCCCCCCC(=O)O [compound 15]
